Literature values as cited in patent publication US20070148249A1, “Method of preparation of oral solid dosage form with instant release of acting” (priority 2003, published 2007).
Read-outs that look alike come from different tables or passages of the source.

Solubility (in chloroform and lower alcohols): well soluble
Solubility (in water): almost insoluble
Compound: CC(C)(C)NC(=O)[C@H]1CC[C@H]2[C@@H]3CC[C@H]4NC(=O)C=C[C@]4(C)[C@H]3CC[C@]12C [Finasteride, (5α,17β)-N-(1,1-dimethylethyl)-3-oxo-4-azaandrost-1-en-17-carboxamide]
